According to US20070092939A1, “HUMAN IMMUNODEFICIENCY VIRUS ENTRY INHIBITOR ASSAY” (priority 2003, published 2007):

System: co-cultivation-induced fusion between HL2/3 and HeLa-CD4-LTR-β-gal cells
Test: Cell fusion assay by co-cultivation of HL2/3 and HeLa-CD4-LTR-β-gal cells, β-galactosidase chemiluminescence readout
Format: cell-based
Conditions: for Response Chemiluminescence / Response Inhibition (%): Table 1; for Chemiluminescence / Inhibition: Table 2 specificity test
Experimental: Depending on the culture vessel (T75 or T175), 0.5−2.0×10^6 HL2/3 or HeLa-CD4-LTR-β-gal cells were seeded into their respective Propagation Medium (for HL2/3, DMEM containing 10% FBS and 0.5 mg/ml G418; for HeLa-CD4-LTR-β-gal, DMEM containing 10% FBS, 0.2 mg/ml G418, and 0.1 mg/ml hygromycin B). Culture at 37° C. with 95% air/5% CO2 until the cultures reach 60% confluency, but can not exceed 95% confluency.
Remove medium by aspiration with 2-ml of glass pipette. Add 5 ml (for T75 flask) or 10 ml (for T175 flask) of the cell dissociation buffer (CDB). Incubate at room temperature for at least 20 minutes. While waiting, prepare potential entry inhibitor (e.g. TNX-355) with cold Assay Medium (DMEM supplemented with 10% FBS) for treatment. Harvest cells in a 15-ml (for T75) or 50-ml (for T175) conical centrifuge tube by repeated pipetting. Determine cell density and viability in 100 μl of samples with Trypan Blue Exclusion method. Centrifuge at 1000 rpm (or 201×g) for 5 minutes. Discard supernatant and resuspend cells in pre-warmed Assay Medium at a cell density of 1×10^6 cells/ml (for HeLa-CD4-LTR-β-gal cells) or 2×10^6 cells/ml (for HL2/3 cells).
Further dilute HeLa-CD4-LTR-β-gal cells to 0.25×10^6 cells/ml with pre-warmed Assay Medium, and pipette 90 μl to each well of a 96-well clear-bottom white-wall plate using a 12-channel pipet. Add 20 μl of drug or medium to each well as needed. Further dilute HL2/3 cells to 0.5×10^6 cells/ml with pre-warmed Assay Medium, and pipette 90 μl to each well of a 96-well clear-bottom white-wall plate using a 12-channel pipet. Total cells in each well is 6.75×10^4 cells at a ratio of 2:1 (HL2/3 to HeLa-CD4-LTR-β-gal cells). Culture cells at 37° C. with 95% air/5% CO2 for about 24 hours.
Remove the medium row by row, immediately followed by addition of 50 μl/well of Lysis Solution (Roche Lysis Buffer containing protease inhibitors). Incubate for 60 minutes at 15-25° C. with mild shaking (200-300 rpm). While waiting, dilute 1 volume of concentrated substrate with 99 volumes of Reaction Buffer to make working substrate solution.
Add 100 μl of the substrate reagent to each well row by row using 12-channel pipette. Incubate for 90 minutes at room temperature with mild shaking (200-300 rpm). While waiting, bring proper volume of Accelerator II solution to room temperature. Add 50 μl of the Accelerator II to each well row by row using 12-channel pipette. Measure light emission with a microplate luminometer. The chemiluminescence readout is reported as light units per second.
The inhibition of HIV entry inhibitors, including TNX-355, T20, SIM.4, and sCD4, was tested on the co-cultivation-induced fusion between the two cell lines (HL2/3 to HeLa-CD4-LTR-β-gal cells). TNX-355 is a humanized anti-CD4 domain 2 antibody, T20 a synthetic oligopeptide mimicking the […] HR-2 region, SIM.4 a monoclonal anti-CD4 domain 1 antibody, and sCD4 is a soluble extracellular portion of CD4 molecule. Multiple levels of each reagent were tested following the procedures described in the Materials and Methods.
Assay specificity was addressed by comparing the inhibitory activity of TNX-355 to those of two structurally similar but functionally irrelevant antibodies. These antibodies are TNX-224 (a humanized antibody IgG4 which differs in complementary determining regions (CDR) but share a majority of sequence homology to TNX-355) and TNX-901 (a humanized antibody IgG1).

TNX-355: humanized anti-CD4 domain 2 antibody, IgG4
Response Chemiluminescence (reagent 0.1 ng/ml): 39185 ± 1260.79 light units per second | Response Inhibition (%) (reagent 0.1 ng/ml): 23.2% | Response Chemiluminescence (reagent 10 ng/ml): 34525 ± 2281.39 light units per second | Response Inhibition (%) (reagent 10 ng/ml): 33.7% | Response Chemiluminescence (reagent 25 ng/ml): 29152 ± 2492.87 light units per second | Response Inhibition (%) (reagent 25 ng/ml): 45.8% | Response Chemiluminescence (reagent 50 ng/ml): 23993 ± 650.74 light units per second | Response Inhibition (%) (reagent 50 ng/ml): 57.3% | Response Chemiluminescence (reagent 100 ng/ml): 18724 ± 989.73 light units per second | Response Inhibition (%) (reagent 100 ng/ml): 69.2% | Response Chemiluminescence (reagent 200 ng/ml): 12312 ± 1516.60 light units per second | Response Inhibition (%) (reagent 200 ng/ml): 83.5% | Response Chemiluminescence (reagent 1000 ng/ml): 6896 ± 383.09 light units per second | Response Inhibition (%) (reagent 1000 ng/ml): 95.7% | Response Inhibition (%) (reagent 10000 ng/ml): 100.0% | Response Chemiluminescence (reagent 10000 ng/ml, about 24 hours co-cultivation): 4978 ± 669.32 light units per second | Chemiluminescence (antibody amount 0.025 μg/ml): 34121 ± 714.43 light units per second | Inhibition (antibody amount 0.025 μg/ml): 20% | Chemiluminescence (antibody amount 1.0 μg/ml): 5135 ± 432.41 light units per second | Inhibition (antibody amount 1.0 μg/ml): 88%

B1: TNX-901: humanized antibody IgG1; functionally irrelevant control (antibody, chains of the INN, looked up, V domains shown)
VH: QVQLVQSGAEVKKPGASVKVSCKASGYTFSMYWLEWVRQAPGHGLEWVGEISPGTFTTNYNEKFKARATFTADTSTNTAYMELSSLRSEDTAVYYCARFSHFSGSNYDYFDYWGQGTLVTVSS
VL: DILLTQSPGTLSLSPGERATLSCRASQSIGTNIHWYQQKPGQAPRLLIKYASESISGIPSRFSGSGSGTDFTLTISRLEPEDFAMYYCQQSDSWPTTFGQGTKVEIK
Chemiluminescence (antibody amount 0.025 μg/ml): 42629 ± 664.10 light units per second | Inhibition (antibody amount 0.025 μg/ml): 0% | Chemiluminescence (antibody amount 10 μg/ml): 42847 ± 1429.78 light units per second | Inhibition (antibody amount 10 μg/ml): 0%
